{"source": "patent US12161669B2", "about": "“Compositions and methods for cell targeting therapies” (UMC UTRECHT HOLDING B.V., priority 2017, dated 2024)", "key": {"[1]": {"tested_on": "CD277", "assay": "Flow cytometry FRET between BODIPY FL-stained membrane and anti-CD277 mAbs (CD277 conformational change), HEK 293 cells", "format": "cell-based", "settings": "ABP vs unstimulated", "description": "Conformational change of BTN3 molecule was determined similarly as described in ([…] et al., 2001). Cells were labeled with 5 ug/ml BODIPY-FL DPHE (donor) (Life Technologies) for 10 minutes on ice and then 10 minutes at 37 C, then washed extensively with ice-cold PBS. Cells were subsequently labeled with mouse anti-CD277 mAbs (either clone #20.1 or #103.2) and Alexa594-conjugated Goat anti-Mouse Fab fragments (Jackson ImmunoResearch). After washing, cells were resuspended in ice cold PBS and measured immediately using a FACS Canto-II flowcytometer (BD). FRET efficiency was calculated from the fractional decrease of the donor fluorescence in the presence of the acceptor."}, "[2]": {"tested_on": "HEK293FT tumor cells", "assay": "Tumor cell-T cell conjugate formation with HEK293FT cells (confocal)", "format": "cell-based", "settings": "Jurma cells expressing γδTCRs, 100 μM PAM", "description": "HEK293FT cells were seeded in μ-slide poly-L-lysine pre coated chamber (Ibidi) to adhere overnight. Next day cells were treated with 100 μM PAM for one hour at 37° C. TEGs were added onto HEK293FT cells and incubated at 37° C. for 30-120 minutes. After co-incubation chambers were immediately placed onto ice and fixed with 4% PFA for 30 minutes. Samples were blocked with 1% BSA/FCS and labeled with CD3ε-Alexa Fluor 647 (BD Biosciences) at 2 μg/mL for two hours at room temperature, and finally fixed with 1% PFA+DAPI. Samples were imaged with Zeiss LSM-710 and analyzed with Volocity software (PerkinElmer). In order to quantify the number of conjugates between HEK293FT and TEG cells we calculated the ratio between CD3c positive objects and DAPI positive objects on each image taken. To analyse gamma delta TCR enrichment into the immunological synapse, we calculated the ratio of CD3c signal enrichment inside the contact area versus outside of contact area of the target and effector cell on 63× magnified images. To further assess whether distinct functional avidity of γ9δ2TCRs when expressed in the TEG format is regulated by their ability to mediate binding of TEGs to tumor cell targets a more dynamic model was utilized. […] The number of tumor cell-T cell conjugates was assessed. […]"}, "[3]": {"tested_on": "RhoA", "assay": "Intracellular RhoA distribution by confocal microscopy in EBV-LCL 48", "format": "cell-based", "settings": "EBV-LCL 48, with or without ABP"}, "[4]": {"tested_on": "Daudi cells", "assay": "sTCR YG-bead conjugation to Daudi cells", "format": "binding", "settings": "with vs without PAM", "source_text": "The extracellular domains of the TCR chains were amplified from synthetic DNA encoding the full length TCRs. The domain boundaries were based on ones published before for Vγ9Vδ2 TCR G115. The TCR chains were ligated in to a modified pBullet vector containing a μ-phosphatase signal peptide at the 5′ end and fos zipper at the 3′ end of the construct. The TCRγ chains were ligated in a modified pBullet vector containing a μ-phosphatase signal peptide at the 5′ end and at the 3′ a jun zipper followed by a biotin acceptor peptide and a poly-histidine tag. Synthetic DNA encoding for the bacterial biotin ligase BirA was also ligated in a pBullet vector containing a signal peptide. The expression of soluble γδTCRs was done in Freestyle 293-F cells (ThermoFisher). In short, plasmids containing TCRδ, TCRγ and BirA were mixed into a 45:45:10 ratio, combined with polyethylenimine (PEI) in a 2:3 ratio and incubated for 15′ at room temperature. […]\nFor tetramer and dextramer staining, 1.0*10^5 cells were incubated with 30 ul tetramer or dextramer solution (100 nM with respect to SA-PE) for 30 minutes at R.T. For beads staining, 7.5*10^4 cells were incubated with 20 μl sTCR-YG-beads (0.33 mg beads/ml) for 30. […] Samples were washed once with 1% formaldehyde and analyzed on a BD FACSCanto II (BD). γδTCR enrichment to synapse and conjugate formation"}}, "data": [{"molecule": "NCCC(O)(P(=O)(O)O)P(=O)(O)O", "note": "[pamidronate]", "values": [{"measurement": "FRET between stained membrane and anti-CD277 antibodies (20.1, 103.2)", "setting": "[1]", "value": "marked reduction in FRET signals"}, {"measurement": "number of tumor cell-T cell conjugates, effect of PAM", "setting": "[2]", "value": "increased the number of conjugates"}, {"measurement": "intracellular distribution of RhoA", "setting": "[3]", "value": "did not change"}, {"measurement": "intensity of TCR-YG-bead conjugation to Daudi cells", "setting": "[4]", "value": "did not change"}]}]}
